Results from ChEMBL document CHEMBL1138541, “Design, synthesis, and evaluation of benzophenone derivatives as novel acetylcholinesterase inhibitors” (Eur J Med Chem, 2009).

Target: Acetylcholinesterase (Homo sapiens, UniProt P22303)
Assay: Inhibition of human recombinant AChE by Ellman's method

Chain of Acetylcholinesterase (P22303 whole entry): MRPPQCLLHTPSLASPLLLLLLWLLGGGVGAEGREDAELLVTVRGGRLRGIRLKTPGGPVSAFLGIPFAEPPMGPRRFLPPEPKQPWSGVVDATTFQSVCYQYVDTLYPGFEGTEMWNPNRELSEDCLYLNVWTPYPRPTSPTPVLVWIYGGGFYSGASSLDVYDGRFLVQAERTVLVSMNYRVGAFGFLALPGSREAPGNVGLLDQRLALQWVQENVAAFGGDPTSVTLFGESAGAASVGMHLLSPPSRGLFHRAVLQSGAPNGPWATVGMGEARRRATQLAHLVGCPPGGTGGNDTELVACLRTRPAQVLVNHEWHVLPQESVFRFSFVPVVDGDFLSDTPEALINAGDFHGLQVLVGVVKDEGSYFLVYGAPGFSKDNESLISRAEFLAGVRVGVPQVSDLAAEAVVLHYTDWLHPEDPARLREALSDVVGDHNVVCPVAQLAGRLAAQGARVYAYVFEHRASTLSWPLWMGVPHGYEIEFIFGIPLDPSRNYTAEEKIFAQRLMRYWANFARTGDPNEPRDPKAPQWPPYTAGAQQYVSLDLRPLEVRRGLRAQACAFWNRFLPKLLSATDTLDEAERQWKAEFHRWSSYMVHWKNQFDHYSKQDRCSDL

Compared with `COc1ccc(C(=O)c2ccc(CN(CCN(C)C)Cc3ccccc3)cc2)cc1OC`, `COc1ccc(C(=O)c2ccc(CN(CCO)Cc3ccccc3)cc2)cc1OC` is 6.1-fold lower in IC50: 8.64 µM for the first, 1.41 µM for the second.

`COc1ccc(C(=O)c2ccc(CN(C)Cc3ccccc3)cc2)cc1OC` and `CCN(Cc1ccccc1)Cc1ccc(C(=O)c2ccc(OC)c(OC)c2)cc1` are within 1.5-fold of each other in IC50: 0.46 µM for the first, 0.57 µM for the second.

`COc1ccc(C(=O)c2ccc(CN(C)Cc3ccccc3)cc2)cc1F` and `COc1ccc(C(=O)c2ccc(CN(C)Cc3ccccc3)cc2)cc1` are within 1.5-fold of each other in IC50: 1.57 µM for the first, 1.82 µM for the second.

First: COc1ccc(C(=O)c2ccc(CN(C)Cc3cccc([N+](=O)[O-])c3)cc2)cc1OC
Second: COc1ccc(C(=O)c2ccc(CN(C)Cc3cccc(C)c3)cc2)cc1OC
The IC50 of the first is 2.6-fold higher: 4.27 µM for the first, 1.65 µM for the second.

Going from `COc1ccc(C(=O)c2ccc(CN(C)CCN(C)C)cc2)cc1OC` to `C#CCN(C)Cc1ccc(C(=O)c2ccc(OC)c(OC)c2)cc1`, the IC50 rises from 2.37 µM to 27.2 µM (11-fold).

Compared with `COc1ccc(C(=O)c2ccc(/C=C/CN(C)Cc3ccccc3)cc2)cc1OC`, `COc1ccccc1CN(C)Cc1ccc(C(=O)c2ccc(OC)c(OC)c2)cc1` is 1.8-fold higher in IC50: 2.1 µM for the first, 3.71 µM for the second.

Going from `COc1ccc(C(=O)c2ccc(CN3CCc4ccccc4C3)cc2)cc1OC` to `COc1ccc(C(=O)c2ccc(CN3CCOCC3)cc2)cc1OC`, the IC50 rises from 54 µM to 345 µM (6.4-fold).

First: CCN(CC)Cc1ccc(C(=O)c2ccc(OC)c(OC)c2)cc1
Second: CN(Cc1ccccc1)Cc1ccc(C(=O)c2ccc3ccccc3c2)cc1
The IC50 of the first is 1.9-fold higher: 36.8 µM for the first, 19.6 µM for the second.

Target: Cholinesterase (Homo sapiens, UniProt P06276)
Assay: Inhibition of human serum BChE by Ellman's method

Chain of Cholinesterase (P06276 whole entry): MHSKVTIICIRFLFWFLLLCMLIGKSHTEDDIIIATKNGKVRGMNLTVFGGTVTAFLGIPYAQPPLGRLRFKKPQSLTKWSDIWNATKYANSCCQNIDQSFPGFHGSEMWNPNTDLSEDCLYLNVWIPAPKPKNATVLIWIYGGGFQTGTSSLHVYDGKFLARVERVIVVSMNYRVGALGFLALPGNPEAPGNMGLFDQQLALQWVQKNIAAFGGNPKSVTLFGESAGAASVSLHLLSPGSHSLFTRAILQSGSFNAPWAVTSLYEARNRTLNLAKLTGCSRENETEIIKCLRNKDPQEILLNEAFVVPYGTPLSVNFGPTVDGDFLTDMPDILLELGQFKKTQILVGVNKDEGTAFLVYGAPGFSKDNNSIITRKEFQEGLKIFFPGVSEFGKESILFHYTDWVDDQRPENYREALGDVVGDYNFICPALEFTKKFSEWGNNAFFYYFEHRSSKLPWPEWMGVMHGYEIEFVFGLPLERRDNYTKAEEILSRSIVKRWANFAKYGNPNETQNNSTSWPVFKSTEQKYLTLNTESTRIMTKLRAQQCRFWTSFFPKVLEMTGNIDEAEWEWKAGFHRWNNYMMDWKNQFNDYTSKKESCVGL

Going from `COc1ccc(C(=O)c2ccc(CN(CCN(C)C)Cc3ccccc3)cc2)cc1OC` to `COc1ccc(C(=O)c2ccc(CN(CCO)Cc3ccccc3)cc2)cc1OC`, the IC50 rises from 33.2 µM to 172 µM (5.2-fold).

`COc1ccc(C(=O)c2ccc(CN(C)Cc3ccccc3)cc2)cc1OC` and `CCN(Cc1ccccc1)Cc1ccc(C(=O)c2ccc(OC)c(OC)c2)cc1` are within 1.5-fold of each other in IC50: 60.7 µM for the first, 71.5 µM for the second.

`COc1ccc(C(=O)c2ccc(CN(C)Cc3ccccc3)cc2)cc1F` and `COc1ccc(C(=O)c2ccc(CN(C)Cc3ccccc3)cc2)cc1` cannot be ordered by IC50: > 100 µM for the first, > 100 µM for the second.

`COc1ccc(C(=O)c2ccc(CN(C)Cc3cccc([N+](=O)[O-])c3)cc2)cc1OC` and `COc1ccc(C(=O)c2ccc(CN(C)Cc3cccc(C)c3)cc2)cc1OC` cannot be ordered by IC50: > 100 µM for the first, 125 µM for the second.

Compared with `COc1ccc(C(=O)c2ccc(CN(C)CCN(C)C)cc2)cc1OC`, `COc1ccccc1CN(C)Cc1ccc(C(=O)c2ccc(OC)c(OC)c2)cc1` is 5.5-fold lower in IC50: 88.8 µM for the first, 16.2 µM for the second. The second is the more potent here.

`COc1ccc(C(=O)c2ccc(/C=C/CN(C)Cc3ccccc3)cc2)cc1OC` showed an IC50 of 44 µM.
